Experimental data as given in patent US11472814B2, “Thienopyranones and furanopyranones as checkpoint inhibitors and modulators of anti-tumor immunity” (SignalRx Pharmaceuticals, Inc., priority 2017, dated 2022).

Legend:
[1] = test system: Bone marrow derived macrophages (BMDMs), M2 gene expression; test: M2 marker mRNA in IL4 stimulated bone marrow derived macrophages (RT PCR); assay type: cell-based, murine; settings: 24 hours, normalized to GAPDH, control = 1
SYK = biological target: T1, SYK (Homo sapiens, UniProt P43405); test: SYK inhibition IC50 (Reaction Biology Corp.); assay type: biochemical; settings: 10-point curve; read-out: SYK IC50
T1 construct: purchased Reaction Biology Corp., Malvern, Pa; (contract assay service)
Description: (§1) The inhibitory activity of a compound of the invention against PI3K and/or BRD4 and/or SYK and/or CDK4/6 can be readily determined using methods known to the skilled artisan, or by commercial vendors offering such services. […] In vivo, PI3K inhibition can be determined from target tissue biopsies by standard tissue processing to disrupt cells and then performing Western Blot analysis to determine the presence or absence of pAKT (substrate of PI3K) relative to a control sample. The activity of a compound of the invention as an inhibitor of a bromodomain-containing protein, such as a BET protein, such as BRD2, BRD3, BRD4, and/or BRDT, or an isoform or mutant thereof, may be determined in vitro, in vivo, or in a cell line. In vitro assays include assays that determine inhibition of bromodomain-containing proteins. Alternatively, inhibitor binding may be determined by running a competition experiment where a provided compound is incubated with a bromodomain-containing protein, such as a BET protein bound to known ligands, labeled or unlabeled. For example, bromodomain inhibition can be determined in vitro using Alpha Screen Technology (http://www.reactionbiologv.com/webapps/site/NewsPDFs/Bromodomain%20Assay %20Platform %20for %20Drug %20Screening %20and %20Discovery.pdf). In vivo bromodomain inhibition can be determined indirectly by evaluating the amount of protein present of proteins whose genes' transcription is influenced or controlled by the bromodomain protein, for example, the MYCN protein transcription is controlled by BRD4 (J. E. Delmore et al., Cell 2011, 146, 904-917; A. Puissant, Cancer Discov. 2013, 3, 308-323). Bromodomain inhibition may also be predicted by in silico modeling as described below in the Examples. Additionally, the company Promega offers a SYK luminescent assay to determine a compound's ability to inhibit the SYK protein (https://www.promega.com/-/media/files/resources/protocols/kinase-enzyme-appnotes/syk-kinase-assay-protocol.pdf?la=en).
Compounds of the invention were characterized for their ability to inhibit target proteins using third party vendors offering such services. PI3K alpha, gamma, and delta inhibition activity was determined by Thermo Fisher Scientific-Biosciences Life Sciences Solutions, Madison, Wis. The bromodomain protein inhibition (binding domain 1 and 2 of BRD4) as well as SYK inhibition was determined at Reaction Biology Corp., Malvern, Pa. Additional information on each of the assays performed and services provided is available at each company's website on the internet (https://www.thermofisher.com/us/en/home/life-science.html and http://www.reactionbiology.com/webapps/site, respectively). The IC50 data (shown below in Table 5) was calculated from a 10-point curve and is expressed in nanomolar concentration (nM) rounded off to the nearest whole number. Where multiple values were obtained the range from lowest to highest values is presented. NI=no inhibition detected up to 50 uM or IC50 not reached at 50 uM.

BRD4-2 = biological target: T2, BRD4-2 (Homo sapiens, UniProt O60885); test: Bromodomain protein inhibition IC50, binding domain 2 of BRD4 (Reaction Biology Corp.); settings: 10-point curve
T2 construct: purchased Reaction Biology Corp., Malvern, Pa; (contract assay service)
Description: as §1
(§2) Compounds of the invention were characterized for their ability to inhibit target proteins using third party vendors offering such services. PI3K alpha, gamma, and delta inhibition activity was determined by Thermo Fisher Scientific-Biosciences Life Sciences Solutions, Madison, Wis. The bromodomain protein inhibition (binding domain 1 and 2 of BRD4) as well as SYK inhibition was determined at Reaction Biology Corp., Malvern, Pa. […] The IC50 data (shown below in Table 5) was calculated from a 10-point curve and is expressed in nanomolar concentration (nM) rounded off to the nearest whole number. […]

[2] = test system: Bone marrow derived macrophages (BMDMs), M2 gene expression; test: M2 marker mRNA in IL4 stimulated bone marrow derived macrophages (RT PCR); assay type: cell-based, murine; settings: for Arg mRNA expression relative to control / Fizz1 mRNA expression relative to control / Mmr mRNA expression relative to control / Ym1 mRNA expression relative to control / Mgl mRNA expression relative to control: IL4 stimulated BMDMs, 24 hours, normalized to GAPDH, control = 1
Method: Bone marrow derived macrophages (MOs) (BMDMs) were exposed to IL4 or LPS for 24 hours to stimulate the M2 or M1 macrophage transition in presence of Compound 1 and the known SYK inhibitor Bay-61-3606 at 1 μM conc. M2 markers Mmr, Ym1, Fizz1 and Mgl mRNA and M1 markers I11, 116 and Tnfa mRNA was quantitated by RT PCR. Values are mean±SEM (n=3-4). Expression of gene of interest is normalized to GAPDH. […] The data provide direct evidence that Compound 1 can block the immunosuppressive macrophage M2 gene expression and activate the M1 gene expression and therefore activate antitumor innate immune cell differentiation in vitro.
(§3) Relative mRNA expression of IL4 or LPS polarized genes in murine bone marrow derived macrophages (BMDMs) treated with various concentrations of inhibitors in vitro. Conclusion: Compound 3 suppressed in vitro macrophage specific immunosuppressive M2 gene expression markers and augmented macrophage stimulatory immune response M1 genes respectively.

PI3K α = biological target: T3, PI3K α (Homo sapiens, UniProt P42336); test: PI3K alpha inhibition IC50 (Thermo Fisher); assay type: biochemical; settings: 10-point curve
T3 construct: purchased Thermo Fisher Scientific-Biosciences Life Sciences Solutions, Madison, Wis; (contract assay service)
Description: as §1, §2

BRD4-1 = biological target: T4, BRD4-1 (Homo sapiens, UniProt O60885); test: Bromodomain protein inhibition IC50, binding domain 1 of BRD4 (Reaction Biology Corp.); settings: 10-point curve
T4 construct: purchased Reaction Biology Corp., Malvern, Pa; (contract assay service)
Description: as §1, §2

[3] = test system: Bone marrow derived macrophages (BMDMs), M1 gene expression; test: M1 marker mRNA in LPS stimulated bone marrow derived macrophages (RT PCR); assay type: cell-based, murine; settings: for Il1 mRNA expression relative to control / Il6 mRNA expression relative to control / Tnfa mRNA expression relative to control: LPS stimulated BMDMs, 24 hours, normalized to GAPDH, control = 1
Description: […] M2 markers Mmr, Ym1, Fizz1 and Mgl mRNA and M1 markers I11, 116 and Tnfa mRNA was quantitated by RT PCR. Values are mean±SEM (n=3-4). Expression of gene of interest is normalized to GAPDH. […] The data provide direct evidence that Compound 1 can block the immunosuppressive macrophage M2 gene expression and activate the M1 gene expression and therefore activate antitumor innate immune cell differentiation in vitro.
as §3

PI3K γ = biological target: T5, PI3K γ (Homo sapiens, UniProt P48736); test: PI3K gamma inhibition IC50 (Thermo Fisher); assay type: biochemical; settings: 10-point curve
T5 construct: purchased Thermo Fisher Scientific-Biosciences Life Sciences Solutions, Madison, Wis; (contract assay service)
Description: as §1, §2

T3 sequence (P42336 whole entry): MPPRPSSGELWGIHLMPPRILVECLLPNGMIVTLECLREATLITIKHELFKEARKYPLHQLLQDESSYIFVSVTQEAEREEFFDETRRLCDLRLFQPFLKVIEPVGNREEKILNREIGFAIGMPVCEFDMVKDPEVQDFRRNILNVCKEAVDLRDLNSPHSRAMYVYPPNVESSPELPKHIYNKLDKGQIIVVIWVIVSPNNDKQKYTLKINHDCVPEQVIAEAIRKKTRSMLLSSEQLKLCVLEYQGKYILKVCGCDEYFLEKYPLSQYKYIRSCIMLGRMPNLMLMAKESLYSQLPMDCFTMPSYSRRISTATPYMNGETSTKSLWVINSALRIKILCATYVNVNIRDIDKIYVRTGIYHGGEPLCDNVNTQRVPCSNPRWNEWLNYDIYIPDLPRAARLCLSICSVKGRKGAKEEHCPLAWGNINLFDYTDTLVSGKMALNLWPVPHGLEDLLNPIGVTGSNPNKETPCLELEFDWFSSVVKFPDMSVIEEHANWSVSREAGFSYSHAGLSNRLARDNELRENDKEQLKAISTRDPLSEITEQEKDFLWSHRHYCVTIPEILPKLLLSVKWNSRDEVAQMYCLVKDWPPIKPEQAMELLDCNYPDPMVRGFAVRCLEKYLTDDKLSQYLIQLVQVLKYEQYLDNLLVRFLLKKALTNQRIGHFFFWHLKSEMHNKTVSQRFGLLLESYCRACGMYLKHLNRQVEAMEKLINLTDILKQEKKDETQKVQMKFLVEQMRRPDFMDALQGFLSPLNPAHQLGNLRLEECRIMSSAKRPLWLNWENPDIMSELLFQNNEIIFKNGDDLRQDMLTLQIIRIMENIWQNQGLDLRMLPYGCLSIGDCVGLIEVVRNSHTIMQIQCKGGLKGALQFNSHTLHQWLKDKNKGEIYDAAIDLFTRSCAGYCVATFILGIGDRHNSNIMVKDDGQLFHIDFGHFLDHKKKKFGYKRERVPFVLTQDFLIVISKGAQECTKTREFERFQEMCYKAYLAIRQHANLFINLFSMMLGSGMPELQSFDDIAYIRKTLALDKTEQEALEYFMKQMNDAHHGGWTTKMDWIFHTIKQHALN
T3 sequence (P27986 whole entry partner): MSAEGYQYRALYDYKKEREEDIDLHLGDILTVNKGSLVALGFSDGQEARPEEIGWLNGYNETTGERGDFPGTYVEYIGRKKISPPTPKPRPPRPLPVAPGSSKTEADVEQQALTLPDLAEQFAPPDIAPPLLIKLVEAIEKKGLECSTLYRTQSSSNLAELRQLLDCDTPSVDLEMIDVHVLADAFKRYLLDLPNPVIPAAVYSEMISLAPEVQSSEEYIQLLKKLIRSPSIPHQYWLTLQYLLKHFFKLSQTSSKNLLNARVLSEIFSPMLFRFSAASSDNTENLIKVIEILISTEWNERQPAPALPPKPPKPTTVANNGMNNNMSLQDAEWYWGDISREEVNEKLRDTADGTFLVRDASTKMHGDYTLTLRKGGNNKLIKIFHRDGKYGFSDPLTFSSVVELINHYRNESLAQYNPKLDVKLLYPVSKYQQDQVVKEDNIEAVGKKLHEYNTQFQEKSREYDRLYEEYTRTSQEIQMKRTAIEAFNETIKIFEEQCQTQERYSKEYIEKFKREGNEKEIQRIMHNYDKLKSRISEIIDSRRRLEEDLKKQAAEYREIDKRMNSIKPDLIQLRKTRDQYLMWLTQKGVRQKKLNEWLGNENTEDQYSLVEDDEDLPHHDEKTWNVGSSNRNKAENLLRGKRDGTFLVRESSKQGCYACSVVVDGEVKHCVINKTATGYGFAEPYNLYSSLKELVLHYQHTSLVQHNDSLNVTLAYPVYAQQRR
T5 sequence (P48736 whole entry): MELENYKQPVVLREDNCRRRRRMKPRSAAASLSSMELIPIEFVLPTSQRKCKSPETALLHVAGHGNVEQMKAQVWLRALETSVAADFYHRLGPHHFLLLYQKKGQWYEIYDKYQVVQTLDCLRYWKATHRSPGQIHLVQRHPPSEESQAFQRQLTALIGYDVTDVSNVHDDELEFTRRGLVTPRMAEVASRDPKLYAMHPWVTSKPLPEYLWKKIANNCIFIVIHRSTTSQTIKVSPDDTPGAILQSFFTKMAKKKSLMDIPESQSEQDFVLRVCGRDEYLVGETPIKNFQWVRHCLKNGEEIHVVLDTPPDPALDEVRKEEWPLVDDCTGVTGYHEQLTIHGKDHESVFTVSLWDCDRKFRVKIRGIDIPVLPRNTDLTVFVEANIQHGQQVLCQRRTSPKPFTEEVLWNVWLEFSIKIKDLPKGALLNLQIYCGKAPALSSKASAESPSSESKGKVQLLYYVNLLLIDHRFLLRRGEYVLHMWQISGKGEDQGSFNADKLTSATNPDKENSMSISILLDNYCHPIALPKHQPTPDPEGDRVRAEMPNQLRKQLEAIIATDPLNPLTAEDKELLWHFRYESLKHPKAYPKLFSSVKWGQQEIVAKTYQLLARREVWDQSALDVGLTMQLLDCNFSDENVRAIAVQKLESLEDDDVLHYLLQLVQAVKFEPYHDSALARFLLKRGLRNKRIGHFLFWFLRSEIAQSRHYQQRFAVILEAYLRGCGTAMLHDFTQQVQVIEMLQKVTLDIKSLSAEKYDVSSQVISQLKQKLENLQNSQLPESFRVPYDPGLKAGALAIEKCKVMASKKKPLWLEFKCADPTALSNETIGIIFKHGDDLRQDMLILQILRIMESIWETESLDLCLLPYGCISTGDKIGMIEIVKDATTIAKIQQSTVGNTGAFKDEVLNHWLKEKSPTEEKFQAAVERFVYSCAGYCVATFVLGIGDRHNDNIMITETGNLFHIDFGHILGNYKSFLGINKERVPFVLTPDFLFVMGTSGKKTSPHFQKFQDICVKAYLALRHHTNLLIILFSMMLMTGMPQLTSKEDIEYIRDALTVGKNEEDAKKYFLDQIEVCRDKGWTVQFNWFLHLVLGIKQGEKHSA

Compound: Cc1nn(-c2ccnc(Nc3ccc(-c4csc5c(=O)cc(N6CCOCC6)oc45)cc3)n2)cc1CN1CC(O)C1 [Compound 1, 3-[p-(4-{4-[(3-Hydroxy-1-azetidinyl)methyl]-3-methyl-1H-pyrazol-1-yl}-2-pyrimidinylamino)phenyl]-5-morpholino-4-oxa-1-thia-7-indenone]
- Mgl mRNA expression relative to control ([1]; 200 nM): 0.31
- Fizz1 mRNA expression relative to control ([1]; 2 μM): 0.22
- IC50 (SYK): < 0.1 µM
- IC50 (BRD4-2): > 50 µM
- Arg mRNA expression relative to control ([2]; 200 nM): 0.5
- Fizz1 mRNA expression relative to control ([2]; 200 nM): 0.44
- Mmr mRNA expression relative to control ([2]; 200 nM): 0.41
- Ym1 mRNA expression relative to control ([2]; 200 nM): 0.37
- Arg mRNA expression relative to control ([2]; 500 nM): 0.45
- Fizz1 mRNA expression relative to control ([2]; 500 nM): 0.31
- Mgl mRNA expression relative to control ([2]; 500 nM): 0.41
- Mmr mRNA expression relative to control ([2]; 500 nM): 0.18
- Ym1 mRNA expression relative to control ([2]; 500 nM): 0.21
- Arg mRNA expression relative to control ([2]; 1 μM): 0.39
- Fizz1 mRNA expression relative to control ([2]; 1 μM): 0.11
- Mgl mRNA expression relative to control ([2]; 1 μM): 0.30
- Mmr mRNA expression relative to control ([2]; 1 μM): 0.19
- Ym1 mRNA expression relative to control ([2]; 1 μM): 0.10
- Arg mRNA expression relative to control ([2]; 2 μM): 0.14
- Mgl mRNA expression relative to control ([2]; 2 μM): 0.40
- Mmr mRNA expression relative to control ([2]; 2 μM): 0.14
- Ym1 mRNA expression relative to control ([2]; 2 μM): 0.11
- Arg mRNA expression relative to control ([2]; 5 μM): 0.22
- Fizz1 mRNA expression relative to control ([2]; 5 μM): 0.06
- Mgl mRNA expression relative to control ([2]; 5 μM): 0.24
- Mmr mRNA expression relative to control ([2]; 5 μM): 0.18
- Ym1 mRNA expression relative to control ([2]; 5 μM): 0.04
- immunosuppressive macrophage M2 gene expression ([2]; BMDMs, IL4 24 hours, 1 μM): blocks immunosuppressive M2 gene expression
- IC50 (PI3K α): 0.1 to 1 µM
- IC50 (BRD4-1): > 50 µM
- Il1 mRNA expression relative to control ([3]; 200 nM): 1.1
- Il6 mRNA expression relative to control ([3]; 200 nM): 1.7
- Tnfa mRNA expression relative to control ([3]; 200 nM): 0.88
- Il1 mRNA expression relative to control ([3]; 500 nM): 1.1
- Il6 mRNA expression relative to control ([3]; 500 nM): 1.29
- Tnfa mRNA expression relative to control ([3]; 500 nM): 1.23
- Il1 mRNA expression relative to control ([3]; 1 μM): 1.2
- Il6 mRNA expression relative to control ([3]; 1 μM): 3.15
- Tnfa mRNA expression relative to control ([3]; 1 μM): 1.70
- Il1 mRNA expression relative to control ([3]; 2 μM): 1.25
- Il6 mRNA expression relative to control ([3]; 2 μM): 1.59
- Tnfa mRNA expression relative to control ([3]; 2 μM): 1.99
- Il1 mRNA expression relative to control ([3]; 5 μM): 0.69
- Il6 mRNA expression relative to control ([3]; 5 μM): 0.97
- Tnfa mRNA expression relative to control ([3]; 5 μM): 0.90
- M1 inflammatory gene expression ([3]; BMDMs, LPS 24 hours, 1 μM): augments M1 inflammatory gene expression
- IC50 (PI3K γ): 5 to 50 µM
